{"source": "patent EP0080940B1", "about": "“Derivatives of 2-phenyl-morpholine and medical compositions” (LABORATOIRE L. LAFON Société anonyme dite:, priority 1981, dated 1983)", "assay_type_in_all_cases": "in vivo", "key": {"[1]": {"experiment": "Acute toxicity by the i.p. route (DL-0, DL-50)", "settings": "mouse, in vivo, ip; souris mâle, voie i.p.", "experimental": "(§1) On a résumé ci-après les résultats des essais qui ont été entrepris chez l'animal avec le CRL 40914, ce produit étant administré, sauf indications contraires, en solution dans l'eau (à pH 5) par voie intrapéritonéale sous un volume de 20 ml/kg chez la souris mâle et de 5 ml/kg chez le rat mâle.\n(§2) Chez la souris mâle, la DL-0 (dose maximale non mortelle) par voie i.p. est supérieure à 128 mg/kg.\n(§3) On a résumé ci-après les résultats des essais qui ont été entrepris chez l'animal avec le CRL 40915, les modalités opératoires étant celles données ci-dessus pour le CR L 40914.\n(§4) Chez la souris mâle, la DL-0 (dose maximale non mortelle) par voie i.p. est supérieure à 256 mg/kg, et la DL-50 par voie i.p. est de l'ordre de 500 mg/kg environ."}, "souris mâle": {"system": "souris mâle", "experiment": "Acute toxicity by the i.p. route (DL-0, DL-50)", "settings": "voie i.p.", "experimental": "as §1, §2, §3, §4"}, "souris [2]": {"system": "souris", "experiment": "Global behaviour and reactivity, mouse", "experimental": "as §1\n(§5) Des lots de 3 animaux sont observés avant, puis 15 min, 30 min, 1 h, 2 h, 3 h et 24 h après l'administration de CRL 40914. On observe ce qui suit:\nas §3"}, "rat": {"system": "rat", "experiment": "Global behaviour and reactivity, rat", "settings": "rat", "experimental": "as §1, §5, §3"}, "souris [3]": {"system": "souris", "experiment": "Interaction with apomorphine, mouse", "experimental": "Des lots de 6 souris reçoivent le CRL 40914 une demi-heure avant l'injection sous-cutanée d'apomorphine, à la dose de 1 mg/kg ou 16 mg/kg.\nas §3"}, "rats [4]": {"system": "rats", "experiment": "Interaction with apomorphine, rat", "settings": "rat", "experimental": "Le CRL 40914 est administré aux rats une demi-heure avant l'injection sous-cutanée de 0,5 mg/kg d'apomorphine.\nas §3"}, "rats [5]": {"system": "rats", "experiment": "Interaction with amphetamine", "settings": "rat", "experimental": "L'amphétamine (2 mg/kg) est injectée par voie intrapéritonéale à des lots de 12 rats, une demi-heure après l'administration de CRL 40914.\nas §3"}, "souris [6]": {"system": "souris", "experiment": "Interaction with reserpine", "settings": "128 mg/kg", "experimental": "Quatre heures après l'injection intrapéritonéale de 2,5 mg/kg de réserpine, des lots de 6 souris reçoivent le CRL 40914.\nas §3"}, "souris [7]": {"system": "souris", "experiment": "Interaction with oxotremorine", "experimental": "Le CRL 40914 est administré à des lots de 6 souris une demi-heure avant l'injection intrapéritonéale de 0,5 mg/kg d'oxotrémorine.\nas §3"}, "souris [8]": {"system": "souris", "experiment": "Four plates test, traction and electroshock", "settings": "32 mg/kg et 128 mg/kg", "description": "Le test est pratiqué sur des lots de 10 souris, une demi-heure après l'administration de CRL 40914.\nas §3"}, "souris [9]": {"system": "souris", "experiment": "Action on spontaneous motility (actimeter)", "settings": "32 mg/kg et 128 mg/kg", "experimental": "Une demi-heure après avoir reçu le CRL 40914, des souris sont placées en actimètre où leur motilité est enregistrée pendant 30 min.\nas §3"}, "souris [10]": {"system": "souris", "experiment": "Motility reduced by habituation to the enclosure", "experimental": "Après 18 h de séjour dans les actimètres, les souris (6 par dose, 12 témoins) reçoivent le CRL 40914. Elles sont aussitôt replacées dans leurs enceintes respectives et, une demi-heure plus tard, on enregistre leur motilité pendant 30 min.\nas §3"}, "souris [11]": {"system": "souris", "experiment": "Motility reduced by hypoxic aggression", "experimental": "Une demi-heure après avoir reçu le CRL 40914, les souris (10 par dose, 20 témoins) sont soumises à une anoxie hypobare aiguë [dépression de 600 mm Hg (soit environ 8 x10^4 pascals) en 90 s puis détente de 45 s] puis elles sont placées en actimètre où leur motilité est enregistrée pendant 10min.\nas §3"}, "souris [12]": {"system": "souris", "experiment": "Asphyxic anoxia (gallamine triethiodide)", "settings": "8 mg/kg, 32 mg/kg et 128 mg/kg, triiodoéthylate de gallamine", "experimental": "Des lots de 10 souris reçoivent le CRL 40914 une demi-heure avant l'administration intrapéritonéale de 32 mg/kg de triiodoéthylate de gallamine (agent curarisant de référence).\nas §3"}, "souris [13]": {"system": "souris", "experiment": "Interaction with yohimbine, temperature", "settings": "yohimbine 0,5 mg/kg i.p. alone", "experimental": "Des lots de 12 souris reçoivent une injection intrapéritonéale de 0,5 mg/kg de yohimbine, une demi-heure avant l'administration de CRL 40914."}, "souris [14]": {"system": "souris", "experiment": "Interaction with yohimbine, spontaneous motility", "settings": "yohimbine 0,5 mg/kg i.p. alone", "experimental": "Des lots de 12 souris reçoivent la yohimbine (0,5 mg/kg i.p.) et le CRL 40914 respectivement 60 et 30 min avant d'être placées en actimètre où leur motilité est enregistrée pendant une demi-heure."}}, "note": "Read-outs that look alike come from different tables or passages of the source."}
{"compound": "Cc1ccccc1C1CN(C)CCO1", "note": "(stereo not shown) [CRL 40915, Chlorhydratede 2-o-tolyl-4-méthyl-morpholine]", "values": [{"measurement": "LD50", "setting": "[1]", "result": "~500", "unit": "mg/kg"}, {"measurement": "DL-0 (dose maximale non mortelle)", "setting": "souris mâle", "result": "> 256", "unit": "mg/kg"}, {"measurement": "symptômes", "setting": "souris [2]; 2 mg/kg i.p.", "result": "pas de symptômes nets"}, {"measurement": "sédation", "setting": "souris [2]; 8 mg/kg i.p.", "result": "sédation fugace pendant 15 à 30 minutes"}, {"measurement": "hypothermie", "setting": "souris [2]; 8 mg/kg i.p., pendant 1 heure", "result": "-1,5 °C"}, {"measurement": "sédation", "setting": "souris [2]; 32 mg/kg i.p.", "result": "sédation pendant 1 heure"}, {"measurement": "hypothermie", "setting": "souris [2]; 32 mg/kg i.p., pendant 1 heure", "result": "-2,8 °C"}, {"measurement": "convulsions", "setting": "souris [2]; 128 mg/kg i.p.", "result": "convulsions pendant 15 minutes"}, {"measurement": "hyporéactivité au toucher", "setting": "souris [2]; 128 mg/kg i.p.", "result": "hyporéactivité au toucher pendant 15 minutes"}, {"measurement": "salivation et lacrymation", "setting": "souris [2]; 128 mg/kg i.p.", "result": "salivation et lacrymation pendant 30 minutes"}, {"measurement": "sédation", "setting": "souris [2]; 128 mg/kg i.p.", "result": "sédation avec diminution de la réaction d'agressivité pendant 2 heures"}, {"measurement": "hypothermie", "setting": "souris [2]; 128 mg/kg i.p., pendant 2 heures", "result": "-2,9 °C"}, {"measurement": "signes", "setting": "rat; 1 mg/kg i.p.", "result": "pas de signes particuliers"}, {"measurement": "mydriase", "setting": "rat; 4 mg/kg i.p.", "result": "mydriase modérée pendant 30 minutes"}, {"measurement": "sédation", "setting": "rat; 4 mg/kg i.p.", "result": "sédation pendant 30 minutes"}, {"measurement": "mydriase", "setting": "rat; 16 mg/kg i.p.", "result": "mydriase pendant 30 à 60 minutes"}, {"measurement": "piloérection", "setting": "rat; 16 mg/kg i.p.", "result": "piloérection"}, {"measurement": "sédation", "setting": "rat; 16 mg/kg i.p.", "result": "sédation pendant 1 à 2 heures"}, {"measurement": "mydriase", "setting": "rat; 64 mg/kg i.p.", "result": "mydriase pendant 1 heure"}, {"measurement": "piloérection", "setting": "rat; 64 mg/kg i.p.", "result": "piloérection pendant 1 heure"}, {"measurement": "sédation", "setting": "rat; 64 mg/kg i.p.", "result": "sédation pendant 1 à 2 heures"}, {"measurement": "hypothermie", "setting": "rat; 64 mg/kg i.p., pendant 30 à 60 minutes", "result": "-1,9 °C"}, {"measurement": "action hypothermisante de l'apomorphine", "setting": "souris [3]; 32 mg/kg et 128 mg/kg", "result": "s'oppose aux doses de 32 mg/kg et 128 mg/kg à l'action hypothermisante de l'apomorphine"}, {"measurement": "indices de verticalisation et de stéréotypies (apomorphine)", "setting": "souris [3]; 128 mg/kg, faible dose (1 mg/kg) d'apomorphine", "result": "diminue les indices de verticalisation et de stéréotypies"}, {"measurement": "effet intrinsèque sur la température", "setting": "souris [3]; doses voisines de 32 mg/kg", "result": "effet hypothermisant intrinsèque"}, {"measurement": "stéréotypies produites par l'apomorphine", "setting": "rats [4]", "result": "ne modifie pas les stéréotypies produites par l'apomorphine"}, {"measurement": "stéréotypies amphétaminiques", "setting": "rats [5]", "result": "ne sont pas modifiées"}, {"measurement": "hypothermie réserpinique", "setting": "souris [6]", "result": "aggrevation de I-hypothermie réserpinique"}, {"measurement": "ptosis réserpinique", "setting": "souris [6]", "result": "le ptosis déjà maximal n'est pas modifié"}, {"measurement": "effet intrinsèque sur la température", "setting": "souris [7]; 32 mg/kg et 128 mg/kg", "result": "effet hypothermisant intrinsèque"}, {"measurement": "hypothermie induite par l'oxotrémorine", "setting": "souris [7]; 32 mg/kg et 128 mg/kg", "result": "s'oppose à l'hypothermie induite par l'oxotrémorine"}, {"measurement": "tremblements induits par l'oxotrémorine", "setting": "souris [7]; 128 mg/kg", "result": "semblent partiellement antagonisés"}, {"measurement": "signes de stimulation cholinergique périphérique provoqués par l'oxotrémorine", "setting": "souris [7]; oxotrémorine 0,5 mg/kg i.p.", "result": "laisse inchangés les signes de stimulation cholinergique périphérique"}, {"measurement": "déficit moteur (traction)", "setting": "souris [8]", "result": "ne provoque pas de déficit moteur majeur"}, {"measurement": "effets convulsivants de l'électrochoc", "setting": "souris [8]", "result": "s'oppose aux effets convulsivants de l'électrochoc"}, {"measurement": "nombre de passages punis (test des quatre plaques)", "setting": "souris [8]", "result": "diminue le nombre de passages punis"}, {"measurement": "activité motrice spontanée", "setting": "souris [9]", "result": "diminution importante de l'activité motrice spontanée"}, {"measurement": "activité motrice chez la souris habituée à son enceinte", "setting": "souris [10]", "result": "ne provoque pas de reprise de l'activité"}, {"measurement": "récupération motrice après agression hypoxique", "setting": "souris [11]", "result": "n'entraîne pas d'amélioration de la récupération motrice"}, {"measurement": "récupération motrice après agression hypoxique", "setting": "souris [11]; 32 mg/kg et 128 mg/kg", "result": "aggravation"}, {"measurement": "apparition des convulsions et de la mort (anoxie asphyxique)", "setting": "souris [12]", "result": "retarde l'apparition des convulsions et de la mort"}]}
{"compound": "COC(=O)[C@@H]1[C@H]2C[C@H]3c4[nH]c5ccccc5c4CCN3C[C@@H]2CC[C@@H]1O", "note": "[yohimbine, reference compound]", "values": [{"measurement": "température rectale", "setting": "souris [13]", "result": "ne modifie pas la température rectale"}, {"measurement": "activité motrice spontanée", "setting": "souris [14]", "result": "ne modifie pas l'activité motrice spontanée"}]}
